From PubChem BioAssay (NCI)
Several values for one entry are separate records, joined by “and”; a condition that tells them apart may be missing. Equal values may be shown once.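 Five compound concentrations were applied to cells in 96-well plates for 48 hours; endpoints were derived by simple linear interpolation of the resulting dose-response curve. Abbreviation: GI50, concentration required for 50% inhibition of growth. TGI: total growth inhibition.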

Key:
Assay in all cases: growth of human tumour cells (NCI), 48 h
[1] = test system: COLO 205 colon
[2] = test system: HT29 colon
[3] = test system: KM12 colon
[4] = test system: MALME-3M melanoma
[5] = test system: MOLT-4 leukemia
[6] = test system: NCI-H226 lung
[7] = test system: NCI-H460 lung
[8] = test system: PC-3 prostate
[9] = test system: SF-268 CNS
[10] = test system: SK-MEL-28 melanoma

Row | SMILES | GI50 [1] | TGI [1] [µM] | GI50 [2] | TGI [2] [µM] | GI50 [3] | TGI [3] [µM] | GI50 [4] [µM] | TGI [4] [µM] | GI50 [5] | TGI [5] [µM] | GI50 [6] [µM] | TGI [6] [µM] | GI50 [7] | TGI [7] [µM] | GI50 [8] [µM] | TGI [8] [µM] | GI50 [9] [µM] | TGI [9] [µM] | GI50 [10] | TGI [10] [µM]
1 | CN(C)C/C=C/C(=O)Nc1cc2c(Nc3cccc(Cl)c3F)ncnc2cc1OCCOC(F)F | 1.69 µM | 6.35 | 1.31 µM | 10.6 | 3.11 µM | 13.5 | 1.64 | 6.47 | 1.42 µM | 6.18 | 1.68 | 7.28 | 2.82 µM | 13.5 | 2.38 | 13.6 | 1.44 | 9.76 | 3.11 µM | 15.3
2 | O=C(CC1Sc2ccccc2NC1=O)NNc1ccc(F)cc1 (stereo unspecified) | 55.6 µM | > 100 | > 100 µM | > 100 | 25.2 µM | > 100 | > 100 | > 100 | 5.52 µM | > 100 | 41.3 | > 100 | 30.8 µM | > 100 | 64.1 | > 100 | 81 | > 100 | > 100 µM | > 100
3 | COC(=O)[C@H](CCCCNC(=O)OCc1ccccc1)NC(=O)[C@@H](NC(=O)Nc1cc(C(F)(F)F)cc(C(F)(F)F)c1)C(C)C | > 10 µM | > 10 | > 10 µM | > 10 | > 10 µM | > 10 | > 10 | > 10 | > 10 µM | > 10 | > 10 | > 10 | > 10 µM | > 10 | > 10 | > 10 | > 10 | > 10 | > 10 µM | > 10
4 | CCOC(=O)c1cc2c(n1Cc1ccccc1OC)-c1oncc1CCC2 | 0.878 µM | 3.97 | 0.912 µM | > 100 | 2.1 µM | > 100 | 3.08 | > 100 | 5.68 µM | > 100 | > 100 | > 100 | 3.89 µM | > 100 | 2.48 | > 100 | 46.2 | > 100 | > 100 µM | > 100
5 | Cc1ccc(NC2=CC(=O)C(=O)c3ccccc32)cc1 | 1.65 µM | 3.1 | 2.14 µM | 4.47 | 2.59 µM | 9.73 | 1.63 | 3.17 | 3.71 µM | > 100 | 1.92 | 4.46 | 1.7 µM | 3.94 | 1.87 | 15.7 | 2.78 | 12.1 | 1.84 µM | 3.58
6 | Nc1nc(N)c(-c2ccc(Cl)c(Cl)c2)c(CP(Cl)(Cl)(Cl)Br)n1 | 10.4 µM | > 100 | 6.14 µM | > 100 | 14.3 µM | > 100 | 18.4 | 72.1 | 28.6 µM | > 100 | 99.7 | > 100 | 1.58 µM | > 100 | 5.31 | > 100 | 7.05 | > 100 | 20.6 µM | > 100
7 | O=C(CCl)Nc1ccc(Cc2ccc(NC(=O)CCl)cc2)cc1 | 1.97 µM | 4.12 | 1.73 µM | 4.47 | 1.57 µM | 3.17 | 1.39 | 3.17 | 1.44 µM | 6.32 | 3.14 | > 100 | 2.09 µM | 4.75 | 2.13 | 6.42 | 1.83 | 9.56 | 2.15 µM | 6.06
8 | O=c1[nH]c(=O)n(C2OC(CO)C(O)C2O)cc1F (stereo unspecified) | 0.0447 µM | 18.7 | 0.0697 µM | > 100 | 0.0267 µM | 51.9 |  | 47.5 | 0.0428 µM | > 100 |  | 27.6 | 0.00463 µM | 1.01 |  | > 100 | 0.0491 | > 100 | 0.0471 µM | > 100
9 | OCC1OC(n2cnc3c(NCc4ccco4)ncnc32)C(O)C1O (stereo unspecified) | 2.25 µM | 7.83 | 2.1 µM | > 38 | 8.51 µM | > 100 | 5.91 | 48.1 | 0.585 µM | 6.25 | 12 | > 71.2 | 2.79 µM | 32.8 | 1.33 | 19.1 | 4.28 | > 100 | 8.72 µM | > 100
10 | COc1ccc2c(c1)C(=O)c1c-2n(CCCCl)c(=O)c2cc(N)ccc12 | > 100 µM | > 100 | > 100 µM | > 100 | 29.3 µM | > 100 | > 100 | > 100 | > 54.6 µM | > 100 | > 80.7 | > 100 | > 100 µM | > 100 | > 72.8 | > 100 | > 75.4 | > 100 | > 100 µM | > 100
11 | Cc1ccc2c(c1)C(O)(c1ccccc1)CCS2 (stereo unspecified) |  | > 100 |  | 66 |  | 54.9 |  | 93.5 |  | 44.7 |  | 82.4 |  | > 100 |  | > 100 |  | > 100 |  | > 100
12 | Cc1cn(C2CC(O)C(COC(N)=O)O2)c(=O)[nH]c1=O (stereo unspecified) |  | > 100 |  | > 100 |  | > 100 |  | > 100 |  | > 100 |  | > 100 |  | > 100 |  | > 100 |  | > 100 |  | > 100
13 | CCOC(=O)CCSC1=CC(=O)c2nc3ccccc3c3ccnc1c23 | 24.9 µM | > 100 | 26.2 µM | 53.8 | 15 µM | 34.1 | 17.5 | 35.4 | 7.31 µM | > 100 | 21.8 | 73.8 | 13.4 µM | 50.1 | 13.5 | 38.7 | 17.1 | 39.4 | 20.2 µM | 41.1
14 | CC(=N/NC(N)=S)/C(C)=N/NC(N)=S |  | > 100 |  | > 100 |  | > 100 |  | > 100 |  | > 100 |  | > 100 |  | > 100 |  | > 100 |  | > 100 |  | > 100
15 | CCS(=O)(=O)N1CCN(c2ccc(Nc3ncc(C(N)=O)c(NC4CC4)n3)cc2)CC1 | 2.61 µM | 21.2 | 6.14 µM | 21.6 | 0.812 µM | 18.5 | 20 | 85.2 | 2.7 µM | 16.5 | 7.12 | 35.9 | 15.3 µM | 59.9 | 16.1 | > 100 | 13.9 | 52.9 | 13.6 µM | 35.6
16 | CC(C)(C)OC(=O)N1Cc2cc3ccccc3nc2C1CO (stereo unspecified) | > 100 µM | > 100 | > 100 µM | > 100 | > 100 µM | > 100 | > 100 | > 100 | > 100 µM | > 100 | > 100 | > 100 | > 100 µM | > 100 | > 100 | > 100 | > 100 | > 100 | > 100 µM | > 100
17 | NC(Cc1c[nH]c2cccc(F)c12)C(=O)O (stereo unspecified) | 43.6 µM and 302 µM | 944 | 36.5 µM and 300 µM | 2620 | 25.2 µM and 230 µM | > 4500 | 2600 | > 4500 | 41.7 µM and 338 µM | > 4500 | 3210 | > 4500 | 34.9 µM and 235 µM | 2460 |  | > 4500 | 801 | > 4500 | 74.7 µM and 360 µM | > 4500
18 | Nc1no[n+]([O-])c1-c1nnc2c(n1)-c1ccccc1C2=O | 1.93 µM | 4.35 | 2.41 µM | 6.74 | 3.53 µM | 15.3 | 1.74 | 3.45 | 2.38 µM | 6.21 | 16.1 | 37.7 | 3.38 µM | 11.4 | 2.91 | 12.6 | 4.4 | 17.3 | 3.91 µM | 13.4
19 | Cc1cn2c(/C=C3\C(=O)N(C)c4ccc(Cl)cc43)c(C)nc2s1 | 3.47 µM | > 100 | 1.9 µM | 12 | 1.29 µM | > 100 | 69.6 | > 100 | 3.1 µM | 15.9 | 18.5 | > 100 | 2.86 µM | 15.3 | 0.99 | 4.38 | 3.02 | > 100 | 6.6 µM | > 100
20 | NCCCNc1nc2ccccc2c2c(=O)c3cc(F)cc(Cl)c3sc12 | 1.92 µM | 4.41 | 1.75 µM | 3.29 | 1.72 µM | 3.17 | 1.68 | 3.32 | 1.78 µM | 3.77 | 6.37 | 23.7 | 1.64 µM | 3.11 | 1.76 | 3.35 | 1.61 | 3.29 | 1.94 µM | 3.49
21 | O=C(O)c1[nH]c2c([N+](=O)[O-])cc([N+](=O)[O-])cc2c1C(=O)O |  | > 100 |  | > 100 |  | > 100 |  | > 100 |  | > 100 |  | > 100 |  | > 100 |  | > 100 |  | > 100 |  | > 100
22 | O=C(Nc1cc2cc([N+](=O)[O-])ccc2oc1=O)c1cccs1 |  | 85.2 |  | > 100 |  | 72.9 |  | > 100 |  | > 100 |  | > 100 |  | > 100 |  | > 100 |  | > 100 |  | > 100
23 | C/C(=N\NC(=S)N1CCN(c2ccccn2)CC1)c1cccc2cccnc12 |  | > 46.1 |  | 21.2 |  | > 100 |  | > 100 |  | > 62.2 |  | 38.4 |  | > 100 |  | > 100 |  | > 100 |  | > 100
24 | CC(=O)c1ccc(Oc2c3ccccc3nc3occc23)cc1 | 24.1 µM | > 100 | 7.13 µM | > 100 | 9.12 µM | > 100 | 4.14 | > 100 | 5.71 µM | > 100 | 15.1 | 90.3 | 23.3 µM | > 100 | 9.77 | > 100 | 7.02 | > 100 | 41.2 µM | > 100
25 | O=C(Nc1ccc(Cl)cc1)N1CCN(c2ccc3nncn3n2)CC1 | 51.6 µM | > 100 | 60.7 µM | > 100 | 52.9 µM | > 100 | 89.1 | > 100 | 23.8 µM | 69.6 | 68.4 | > 100 | 50.4 µM | > 100 | 34.3 | > 100 | > 100 | > 100 | > 100 µM | > 100
26 | CC(=O)/C=C/c1ccc(N(CCO)Cc2ccc(C(C)(C)C)cc2)cc1 | 29.3 µM | 129 | 27.7 µM | 103 | 39.6 µM | 155 | 65.3 | 208 | 30.1 µM | 142 | 73.3 | 248 | 39.9 µM | 144 | 32.2 | 128 | 59 | 200 | 58.8 µM | 201
27 | CC(=N\O)/C(C)=N/O.CC(=N\O)/C(C)=N/O.[Fe].[NH2-].c1c[nH]cn1 | > 100 µM | > 100 | > 100 µM | > 100 | > 100 µM | > 100 | > 100 | > 100 | > 100 µM | > 100 | > 100 | > 100 | > 100 µM | > 100 | > 100 | > 100 | > 100 | > 100 | > 100 µM | > 100
